Measurements: article PMC4364779, “IMD-4690, a Novel Specific Inhibitor for Plasminogen Activator Inhibitor-1, Reduces Allergic Airway Remodeling in a Mouse Model of Chronic Asthma via Regulating Angiogenesis and Remodeling-Related Mediators” (PLoS ONE, 2015)

How the values were obtained:
[1] = Body weight and adverse effects in Dp-sensitized mice; assay type: in vivo, mouse; settings: 10 mg/kg i.p.
From the text: Six-week-old female BALB/c mice (15–20 g) were purchased from CLEA Japan Inc. (Tokyo, Japan). Mice were maintained in the animal facility of the University of Tokushima according to the guidelines of the ethics committee of our university. The present study was approved by Institutional Animal Care and Use Committee of the University of Tokushima (Permission Number: 11134). Mice were housed under specific pathogen-free conditions with 12-h light/dark cycle in a temperature-controlled room with free access to food and water. Mice were monitored weekly for body weight and daily for food and water intake and assessed visually for signs of clinical disease including inactivity, labored respiration and ruffled fur.
All mice were sensitized on days 0 and 7 by intraperitoneal injections of 10 μg of Dp dissolved in 500 μL saline and mixed with 1mg of Alum (Sigma-Aldrich Japan). Dp-sensitized mice were challenged intranasally with 10 μg (10 μL) Dp in 70 μL saline on alternate days, 3 days per week, from days 14 to 67. The mice were also treated intraperitoneally with IMD-4690 (10 mg/kg) (Dp/IMD group) or CMC alone (Dp/CMC group) at the same day with Dp challenge. As a control, mice were challenged with saline and given CMC during this period (control/CMC group) (Fig. 1A). Each experiment was performed using six mice per group.

[2] = molecular target: α1-anti-trypsin (SERPINA1) (Homo sapiens, UniProt P01009); experiment: SERPIN inhibition selectivity, similar enzymatic method; assay type: biochemical; settings: Ser protease: Trypsin, Neu-Elastase
Sequence of α1-anti-trypsin (SERPINA1) (P01009 25-418): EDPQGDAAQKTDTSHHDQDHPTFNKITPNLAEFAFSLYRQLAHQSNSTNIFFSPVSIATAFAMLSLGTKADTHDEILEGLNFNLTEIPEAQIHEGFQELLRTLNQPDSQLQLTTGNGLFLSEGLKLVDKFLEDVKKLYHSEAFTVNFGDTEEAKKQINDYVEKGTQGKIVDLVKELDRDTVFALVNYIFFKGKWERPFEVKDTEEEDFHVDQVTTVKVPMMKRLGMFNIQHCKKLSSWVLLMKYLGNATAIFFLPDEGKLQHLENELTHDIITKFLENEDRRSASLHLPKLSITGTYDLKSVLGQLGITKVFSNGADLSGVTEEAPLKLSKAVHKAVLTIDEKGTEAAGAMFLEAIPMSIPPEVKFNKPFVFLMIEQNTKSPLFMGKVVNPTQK
Procedure: (§1) Inhibitory effect of IMD-4690 on the activity of PAI-1 was measured by the direct tPA assay. Briefly, recombinant tPA and PAI-1 was mixed with IMD-4690, and then tPA substrate with fluorescent pigment (Pyr-Gly-Arg-MCA) was added in this mixture and incubated. The enzymatic activity was calculated by measuring the fluorescence. The inhibitory activity of IMD-4690 on other enzymes was measured with the similar method.

[3] = molecular target: T1, Heparin Cofactor 2 (HC2/SERPIND1) (Homo sapiens, UniProt P05546); experiment: as above; assay type: biochemical; settings: Ser protease: Thrombin
T1 sequence (P05546 20-499): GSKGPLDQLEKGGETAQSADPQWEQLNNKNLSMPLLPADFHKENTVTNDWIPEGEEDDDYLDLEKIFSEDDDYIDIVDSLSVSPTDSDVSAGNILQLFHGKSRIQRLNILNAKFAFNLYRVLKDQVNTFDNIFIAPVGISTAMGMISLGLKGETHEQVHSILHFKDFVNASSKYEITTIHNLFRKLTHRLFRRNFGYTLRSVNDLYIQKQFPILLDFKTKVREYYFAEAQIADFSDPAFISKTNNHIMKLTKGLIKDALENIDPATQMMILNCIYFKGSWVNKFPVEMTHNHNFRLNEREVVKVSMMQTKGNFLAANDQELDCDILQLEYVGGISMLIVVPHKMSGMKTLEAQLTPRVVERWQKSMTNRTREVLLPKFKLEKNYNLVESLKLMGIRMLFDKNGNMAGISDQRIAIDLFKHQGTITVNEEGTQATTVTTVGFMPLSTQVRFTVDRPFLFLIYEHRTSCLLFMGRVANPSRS
Procedure: as §1

[4] = molecular target: T2, α1-anti-plasmin (SERPINF2) (Homo sapiens, UniProt P08697); experiment: as above; assay type: biochemical; settings: Ser protease: Plasmin
T2 sequence (P08697 40-491): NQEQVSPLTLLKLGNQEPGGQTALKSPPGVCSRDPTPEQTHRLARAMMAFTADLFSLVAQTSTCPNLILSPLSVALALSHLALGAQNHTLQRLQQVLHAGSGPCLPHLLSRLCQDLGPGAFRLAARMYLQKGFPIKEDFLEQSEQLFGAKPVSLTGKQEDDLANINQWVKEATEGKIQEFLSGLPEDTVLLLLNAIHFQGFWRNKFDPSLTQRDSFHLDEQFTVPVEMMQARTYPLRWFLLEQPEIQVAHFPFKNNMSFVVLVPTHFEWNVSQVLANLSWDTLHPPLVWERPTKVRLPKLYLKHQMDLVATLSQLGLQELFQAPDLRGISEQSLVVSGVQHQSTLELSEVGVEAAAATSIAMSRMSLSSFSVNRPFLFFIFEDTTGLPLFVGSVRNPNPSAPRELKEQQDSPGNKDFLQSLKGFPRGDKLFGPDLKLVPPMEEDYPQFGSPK
Procedure: as §1

PAI-2 (SERPINB2) = PAI-2 (SERPINB2) (Homo sapiens, UniProt P05120); experiment: as above; assay type: biochemical; settings: Ser protease: uPA
Sequence of PAI-2 (SERPINB2) (P05120 whole entry): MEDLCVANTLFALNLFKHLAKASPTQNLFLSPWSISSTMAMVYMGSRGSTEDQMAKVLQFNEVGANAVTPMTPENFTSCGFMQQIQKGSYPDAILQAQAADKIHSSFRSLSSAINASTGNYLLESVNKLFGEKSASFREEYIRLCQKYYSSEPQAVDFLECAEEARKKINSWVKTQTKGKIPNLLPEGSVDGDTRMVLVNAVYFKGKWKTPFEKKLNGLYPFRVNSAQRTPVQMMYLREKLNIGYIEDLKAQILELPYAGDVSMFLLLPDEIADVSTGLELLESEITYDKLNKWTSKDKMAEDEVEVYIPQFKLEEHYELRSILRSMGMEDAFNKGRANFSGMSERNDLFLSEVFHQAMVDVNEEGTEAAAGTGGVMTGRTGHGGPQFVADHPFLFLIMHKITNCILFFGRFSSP
Procedure: as §1

[5] = molecular target: T3, α1-anti-chymotrypsin (SERPINA3) (Homo sapiens, UniProt P01011); experiment: as above; assay type: biochemical; settings: Ser protease: Chymotrypsin, Cathepsin G
T3 sequence (P01011 24-423): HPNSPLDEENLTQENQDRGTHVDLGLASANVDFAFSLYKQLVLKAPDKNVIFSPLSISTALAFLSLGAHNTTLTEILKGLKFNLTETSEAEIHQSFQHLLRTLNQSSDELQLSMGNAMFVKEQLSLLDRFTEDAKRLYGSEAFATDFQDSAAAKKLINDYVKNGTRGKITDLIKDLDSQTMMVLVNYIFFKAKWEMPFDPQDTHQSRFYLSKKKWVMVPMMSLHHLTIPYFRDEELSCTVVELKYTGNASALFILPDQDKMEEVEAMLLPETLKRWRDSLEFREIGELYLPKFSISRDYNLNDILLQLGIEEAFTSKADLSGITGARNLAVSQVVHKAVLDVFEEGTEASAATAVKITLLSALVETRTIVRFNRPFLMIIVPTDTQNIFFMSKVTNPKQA
Procedure: as §1

[6] = molecular target: Anti-thrombin (AT3/SERPINC1) (Homo sapiens, UniProt P01008); experiment: as above; assay type: biochemical; settings: Ser protease: Thrombin, factor Xa
Sequence of Anti-thrombin (AT3/SERPINC1) (P01008 33-464): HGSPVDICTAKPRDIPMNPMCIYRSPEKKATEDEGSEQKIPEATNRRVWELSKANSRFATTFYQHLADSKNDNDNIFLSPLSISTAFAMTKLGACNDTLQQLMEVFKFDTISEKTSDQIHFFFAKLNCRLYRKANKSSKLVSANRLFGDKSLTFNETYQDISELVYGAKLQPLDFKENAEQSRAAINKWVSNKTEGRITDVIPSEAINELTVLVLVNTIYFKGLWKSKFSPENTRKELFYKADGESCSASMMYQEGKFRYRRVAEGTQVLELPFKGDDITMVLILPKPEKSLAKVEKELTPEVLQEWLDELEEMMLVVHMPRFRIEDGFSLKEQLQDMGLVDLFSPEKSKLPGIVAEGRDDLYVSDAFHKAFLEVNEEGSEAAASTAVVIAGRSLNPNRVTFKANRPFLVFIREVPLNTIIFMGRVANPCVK
Procedure: as §1

[7] = molecular target: T4, PAI-3 (Protein C inhibitor/SERPINA5) (Homo sapiens, UniProt P05154); experiment: as above; assay type: biochemical; settings: Ser protease: uPA
T4 sequence (P05154 26-406): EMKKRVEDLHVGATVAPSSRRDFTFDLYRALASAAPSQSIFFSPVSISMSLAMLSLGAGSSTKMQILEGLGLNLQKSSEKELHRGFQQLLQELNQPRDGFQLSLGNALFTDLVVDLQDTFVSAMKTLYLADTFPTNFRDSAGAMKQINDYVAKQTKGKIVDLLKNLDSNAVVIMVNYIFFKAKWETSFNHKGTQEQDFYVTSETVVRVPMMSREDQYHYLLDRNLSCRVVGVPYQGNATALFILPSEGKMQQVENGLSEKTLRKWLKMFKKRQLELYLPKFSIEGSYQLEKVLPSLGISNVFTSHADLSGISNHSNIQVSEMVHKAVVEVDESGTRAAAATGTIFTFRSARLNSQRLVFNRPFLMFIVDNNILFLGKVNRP
Procedure: as §1

CC(C)(C)c1ccc(Oc2cc(-c3ccc(OC(F)(F)F)cc3)ccc2OCC(=O)O)cc1 [IMD-4690, 2-[[3-(4-tert-Butylphenoxy)-4'-(trifluoromethoxy) [1,1'-biphenyl]-4-yl]oxy] acetic acid]
Adverse effects in the mouse model ([1]; chronic Dp model): could not find any adverse effects | Changes in body weight ([1]; Dp-sensitized mice): did not show any weight loss | IC50 [2]: > 25 µM | IC50 [3]: > 25 µM | IC50 [4]: > 25 µM | IC50 (PAI-2 (SERPINB2)): > 25 µM | IC50 [5]: > 25 µM | IC50 [6]: > 25 µM | IC50 [7]: > 25 µM
